Measurements taken from patent publication US10350228B2, “Treatment of sickle cell disease and inflammatory conditions” (Seattle Genetics, Inc., priority 2012, dated 2019).
Entries after “also recorded” stand apart in the source; their conditions may differ.

What was measured:
[1] = system: blood neutrophils; experiment: Blood neutrophil counts in treated mice; format: in vivo, Balb/c mice; details: 10 or 100 mM in drinking water, day 21
Protocol: (§1) Female Balb/c mice were given oral 2-fluorofucose in their drinking water (10 mM, 100 mM, n=3/group) or left untreated. Mice remained on the 2-fluorofucose-containing water through day 21 when blood was collected. Pre-dose bleeds were collected for baseline comparison. Total white cells/μL blood were determined by hemacytometer using Turk's solution (0.01% gentian violet in 3% acetic acid) to exclude red blood cells. RBCs were eliminated from the remainder of the blood by osmotic lysis for flow cytometric analysis. Cells were incubated with anti-Gr-1-FITC antibodies (BD Biosciences) to identify neutrophils, and a recombinant P-selectin-human Fc fusion protein (R&D Systems) or a recombinant E-selectin-human Fc fusion protein. Cells were washed and then incubated with a PE-labeled goat anti-human IgG-Fc secondary antibody (Jackson Immunoresearch) to detect bound P-selectin or E-selectin. Samples were collected on a FACSCalibur flow cytometer and analyzed using CellQuest software. The percentage of Gr-1+ cells was determined and absolute number of neutrophils was calculated using the total white cell number from the hemacytometer count. In addition, flow samples were gated for Gr-1+ cells to assess P-selectin or E-selectin binding to neutrophils by histogram analysis. The geometric mean of the P-selectin or E-selectin fluorescent signal was determined from the histogram. […]

[2] = system: E-selectin; experiment: E-selectin binding to neutrophils from treated mice (flow cytometry); format: in vivo, Balb/c mice; details: 10 or 100 mM in drinking water, day 21
Protocol: as §1

[3] = system: white blood cells; experiment: White blood cell counts in sickle cell mice; format: in vivo, NY1DD sickle cell mice; details: 7 days
Protocol: (§2) NY1DD sickle cell mice were given plain water or 20 or 100 mM 2-fluorofucose in their drinking water ad libitum for 7 days. The treatment and control group had four mice per treatment group. On day 7, the mice were sacrificed with CO2. An EDTA blood sample was collected from the heart and the liver was removed and frozen in liquid nitrogen. Total white blood cell counts and differentials were performed by manual counting using a hemocytometer and Wright-stained blood smears, respectively. Nuclear extracts were prepared from nuclei isolated from liver homogenates. Western blots of the nuclear extracts were immunostained with antibodies to NF-κB phospho-p65 a marker of NF-κB activation.

[4] = system: activated HUVEC cells; experiment: Adhesion of LS174T cells to TNFα-activated HUVEC cells; format: cell-based; details: cells cultured with 100 μM for 10 days; adhesion at 4° C.
Protocol: For adhesion to activated HUVEC cells, non-tissue culture treated 96-well clear bottom black culture plates were coated with attachment factor (100 μL/well), 30 min at room temperature. Wells were aspirated and HUVECs were added to half of the wells (40,000 cells/200 μL cell culture medium) while 3% BSA/PBS was added to the remaining control wells (100 μL) and the plate was incubated overnight at 37° C., 5% CO2. The confluent HUVEC cells were then treated with TNFα (20 ng/mL in PBS) for 4 hr at 37° C. Meanwhile tumor cells were labeled with Calcein-AM as described. The wells of the 96-well plate were all aspirated and seeded with 2-fluorofucose-treated or untreated labeled LS174T cells (500000 cells/well) and the plate was kept at 4° C. for 2 hr. Plates were read at 480 nm excitation and 520 nm emission (total cell reading) and then washed with DPBS four times, followed by fluorescent analysis. (see FIG. 4; The numeral 1 refers to 2-fluorofucose).

[5] = system: P-selectin; experiment: P-selectin binding to neutrophils from treated mice (flow cytometry); format: in vivo, Balb/c mice; details: 10 or 100 mM in drinking water, day 21
Protocol: as §1

[6] = system: NF-κB phospho-p65; experiment: Western blot of NF-κB phospho-p65 in liver nuclear extracts of sickle cell mice; format: in vivo, NY1DD sickle cell mice; details: 7 days
Protocol: as §2

[7] = system: E-selectin; experiment: Adhesion of LS174T cells to immobilized E-selectin; format: cell-based; details: cells cultured with 100 μM for 10 days; adhesion at 4° C.
Protocol: LS174T cells (ATCC) were cultured in MEM-Eagle with 10% FBS with or without 100 μM 2-fluorofucose for 10 days. For adhesion to purified E-selectin, non-tissue culture treated 96-well clear bottom black culture plates were coated with E-selectin-Fc chimera (5 μg/mL, PBS) and controls with 3% BSA/PBS, 2 hr at 37° C., then overnight at 4° C. Wells were washed two times with PBS and blocked with 3% BSA/PBS (2 hr, room temperature). LS174T cells were harvested and washed with PBS 2 times, labeled with 5 μM Calcein-AM in serum-free medium (15 min), and washed with DBPS two times. Cells in DPBS (100 μL) of were added to each well and the plate was kept at 4° C. for 2 hr. Plates were read at 480 nm excitation and 520 nm emission (total cell reading) and then washed with DPBS four times, followed by fluorescent analysis.

[8] = system: antibody core fucosylation; experiment: Inhibition of antibody core fucosylation by fucose analogs; format: cell-based
Description: Methods of determining whether a fucose analog is capable of having an effect on antibody core fucosylation is provided in WO 2012/019165.

[9] = system: NY1DD sickle cell mice; experiment: Hemoglobin-induced vascular stasis in dorsal skin fold chamber venules; format: in vivo; details: 20 mM in drinking water 7 days
Protocol: NY1DD sickle cell mice were given plain water or 20 or 100 mM 2-fluorofucose in their drinking water ad libitum for 7 days. On day 4, dorsal skin fold chambers were implanted onto the mice (n=4). On day 7, flowing venules in the dorsal skin-fold chamber window were selected and mapped using intravital microscopy. Thereafter, the mice were infused via the tail vein with human stroma-free hemoglobin (0.32 μmols heme/kg), a known inducer of vascular stasis in SCD mice. At 1 and 4 hours after infusion the same venules were re-examined and the percentage of vessels that had become static (no flow) was recorded. A control group of NY1DD mice (n=3) with implanted dorsal skin-fold chambers was given water to drink and injected intraperitoneally with hemin (40 μmols/kg×3 days) a known inhibitor of vascular stasis

C[C@H](O)[C@@H](O)[C@@H](O)[C@H](F)C=O [2-fluorofucose, 2-deoxy-2-fluorofucose]
blood neutrophil counts [1]: significantly increased | E-selectin binding to neutrophils [2]: loss | White blood cells counts (mean+SD) ([3]; 20 mM in drinking water): 22.1+5.2 K/μL | White blood cells counts (mean+SD) ([3]; 100 mM in drinking water): 34.2+7.2 K/μL | adhesion of LS174T cells to HUVEC cells activated with TNFα [4]: decreased adhesion | P-selectin binding to neutrophils [5]: dimished and loss | Nuclear NF-κB phospho-p65 in liver ([6]; 20 mM in drinking water): partially diminished | Nuclear NF-κB phospho-p65 in liver ([6]; 100 mM in drinking water): markedly decreased | adhesion of LS174T cells to immobilized E-selectin [7]: decreased adhesion; also recorded: diminished adhesion to selectins | inhibition at 50 µM ([8]; Table 2, 50 μM analog, read-out: Inhibition at 50 μM): > 80% | inhibition at 1000 µM ([8]; Table 2, 1 mM analog): > 80% | percent static venules (vascular stasis) ([9]; 1 hour after hemoglobin infusion): partially inhibited stasis; also recorded: partially diminished | percent static venules (vascular stasis) ([9]; 4 hours after hemoglobin infusion): partially inhibited stasis; also recorded: partially diminished
